Assay: Solubility by HPLC assay
Type: physicochemical
Conditions: pH 7.4, HPLC assay
Procedure: Solubility was assessed for selected compounds using an HPLC assay.

Structure (SMILES)	Solubility (μM) at pH 7.4 [μM]
Cc1ccc(-c2cncc(C(=O)N(C)c3ccc(Cl)cc3)c2)cc1 [APZ-2160, N-(4-chlorophenyl)-N-methyl-5-(p-tolyl)nicotinamide]	12.8
Cc1ccc(N(C)C(=O)c2ncn(-c3ccc(C)cc3)n2)cc1 [APZ-2327, N-methyl-N,1-di-p-tolyl-1H-1,2,4-triazole-3-carboxamide]	19.1

— patent publication US20260097046A1, “PLASMODIUM FALCIPARUM BLOOD STAGE INHIBITORS” (University of Georgia Research Foundation, Inc., priority 2023, published 2026)
